Consider 28 compounds from US9751854B2 (Millennium Pharmaceuticals, Inc., priority 2014, dated 2017).

Usually IC50 stands for the concentration needed to halve the response being measured. Read a low IC50 as greater potency in that assay.

For this experiment, the target named is human VPS34 (Homo sapiens (Human), UniProt Q8NEB9). Kind of experiment: Human VPS34 enzyme assay (Adapta TR-FRET ADP detection). The format is biochemical. As to conditions: IC50 range class. On the technique in general: In TR-FRET formats the signal depends on donor and acceptor labels being close together.
human VPS34, sequence (Q8NEB9 whole entry): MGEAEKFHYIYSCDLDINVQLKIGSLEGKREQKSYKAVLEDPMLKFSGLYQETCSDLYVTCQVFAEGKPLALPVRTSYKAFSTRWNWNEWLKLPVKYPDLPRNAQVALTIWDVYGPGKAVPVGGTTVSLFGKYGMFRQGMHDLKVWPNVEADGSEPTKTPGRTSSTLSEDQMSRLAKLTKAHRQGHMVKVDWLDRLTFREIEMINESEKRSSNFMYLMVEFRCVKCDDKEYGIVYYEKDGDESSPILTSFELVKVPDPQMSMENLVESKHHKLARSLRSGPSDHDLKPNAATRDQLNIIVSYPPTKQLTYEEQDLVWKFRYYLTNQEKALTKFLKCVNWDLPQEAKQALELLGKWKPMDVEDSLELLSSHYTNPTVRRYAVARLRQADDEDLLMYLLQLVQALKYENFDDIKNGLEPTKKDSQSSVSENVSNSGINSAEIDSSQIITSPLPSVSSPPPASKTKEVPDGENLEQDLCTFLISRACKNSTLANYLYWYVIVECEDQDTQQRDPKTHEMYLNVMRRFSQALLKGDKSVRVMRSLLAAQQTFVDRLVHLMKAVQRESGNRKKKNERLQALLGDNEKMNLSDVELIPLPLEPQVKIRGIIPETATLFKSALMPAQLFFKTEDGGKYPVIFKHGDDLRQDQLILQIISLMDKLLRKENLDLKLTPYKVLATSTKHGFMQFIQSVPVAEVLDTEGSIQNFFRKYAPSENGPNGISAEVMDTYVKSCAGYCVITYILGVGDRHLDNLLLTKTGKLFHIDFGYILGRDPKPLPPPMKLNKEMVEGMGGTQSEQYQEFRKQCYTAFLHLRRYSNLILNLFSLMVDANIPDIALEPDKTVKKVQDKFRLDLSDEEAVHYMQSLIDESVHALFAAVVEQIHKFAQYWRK
For the compound `CC(=O)Nc1cc(-c2cnc(C)c(NS(C)(=O)=O)c2)ccn1` [Compound I-167, N-{6-methyl-5-[(methylsulfonyl)amino]-3,4′-bipyridin-2′-yl}acetamide], the IC50 fell in the range of 10 to 50 nM.
`CC(=O)Nc1cc(-c2cnc(C)c(NS(=O)(=O)c3ccc(OC(F)(F)F)cc3Cl)c2)ccn1` [Compound I-113, N-[5-({[2-chloro-4-(trifluoromethoxy)phenyl]sulfonyl}amino)-6-methyl-3,4′-bipyridin-2′-yl]acetamide]: the IC50 was below 10 nM.
The result for `COc1ncc(-c2ccnc(NC(C)=O)c2)cc1NC(=O)c1ccc(F)cc1F` [Compound I-347, N-(2′-acetamido-6-methoxy-3,4′-bipyridin-5-yl)-2,4-difluorobenzamide] reads above 100 nM; that for `CC(=O)Nc1cc(-c2cnc(N)c(S(=O)(=O)Nc3ccc4ccccc4c3)c2)ccn1` [Compound I-98, N-[6-amino-5-(2-naphthylsulfamoyl)-3,4′-bipyridin-2′-yl]acetamide], 10 to 50 nM; that for `CC(=O)Nc1cc(-c2cnc3c(c2)S(=O)(=O)N[C@@H](c2ccccc2)CO3)ccn1` [Compound I-334, (S)-N-[4-(1,1-dioxido-3-phenyl-3,4-dihydro-2H-pyrido[2,3-b][1,4,5]oxathiazepin-8-yl)pyridin-2-yl]acetamide], above 100 nM.
The same measure for `Cc1c(-c2ccnc(Nc3ccncn3)c2)cnc(Cl)c1NS(=O)(=O)c1ccc(F)cc1F` [Compound I-282, N-[6-chloro-4-methyl-2′-(pyrimidin-4-ylamino)-3,4′-bipyridin-5-yl]-2,4-difluorobenzenesulfonamide]: below 10 nM.
The result for `Cc1nccc(Nc2cc(-c3cnc(C)c(C(=O)N4CC(C)(C)C4)c3)ccn2)n1` [Compound I-495, (3,3-dimethylazetidin-1-yl){6-methyl-2′-[(2-methylpyrimidin-4-yl)amino]-3,4′-bipyridin-5-yl}methanone] reads 10 to 50 nM; that for `CC(=O)Nc1cc(-c2cnc(C)c(NS(=O)(=O)c3ccc(F)cc3)c2)ccn1` [Compound I-185, N-(5-{[(4-fluorophenyl)sulfonyl]amino}-6-methyl-3,4′-bipyridin-2′-yl)acetamide], below 10 nM; that for `Cc1nccc(Nc2cc(-c3cnc(C)c(C(=S)N4CCC4)c3)ccn2)n1` [Compound I-223, Azetidin-1-yl{6-methyl-2′-[(2-methylpyrimidin-4-yl)amino]-3,4′-bipyridin-5-yl}methanethione], 10 to 50 nM.
`CC(=O)Nc1cc(-c2cncc(S(=O)(=O)NC(C)(C)C)c2)ccn1` [Compound I-443, N-[5-(tert-butylsulfamoyl)-3,4′-bipyridin-2′-yl]acetamide] displayed an IC50 of 10 to 50 nM.
The same measure for `COc1ncc(-c2ccnc(NC(C)=O)c2)cc1S(=O)(=O)Nc1cc(Cl)ccc1Cl` [Compound I-432, N-{5-[(2,5-dichlorophenyl)sulfamoyl]-6-methoxy-3,4′-bipyridin-2′-yl}acetamide]: 10 to 50 nM.
`CC(=O)Nc1cc(-c2cnc(C)c(S(=O)(=O)Nc3ccc(F)cc3F)c2)ccn1` [Compound I-353, N-(5-(N-(2,4-difluorophenyl)sulfamoyl)-6-methyl-[3,4′-bipyridin]-2′-yl)acetamide] gave a concentration for half-maximal inhibition (IC50) of 10 to 50 nM.
The result for `CC(=O)Nc1cc(-c2cnc(C)c(NS(=O)(=O)c3ccc(F)cc3F)c2)c(F)cn1` [Compound I-161, N-(5-{[(2,4-difluorophenyl)sulfonyl]amino}-5′-fluoro-6-methyl-3,4′-bipyridin-2′-yl)acetamide] reads below 10 nM.
The compound `CC(=O)Nc1cc(-c2cncc(S(=O)(=O)NC3CC3)c2)ccn1` [Compound I-338] had an IC50 of 10 to 50 nM.
The same measure for `CC(=O)Nc1cc(-c2cnc(N)c(S(=O)(=O)NCCc3ccccc3)c2)ccn1` [Compound I-148, N-{6-amino-5-[(2-phenylethyl)sulfamoyl]-3,4′-bipyridin-2′-yl}acetamide]: 10 to 50 nM; for `CC(=O)Nc1cc(-c2cnc(N)c(N3CCCN(C)S3(=O)=O)c2)ccn1` [Compound I-323, N-[6-amino-5-(6-methyl-1,1-dioxido-1,2,6-thiadiazinan-2-yl)-3,4′-bipyridin-2′-yl]acetamide]: 10 to 50 nM.
The result for `Cc1nccc(Nc2cc(-c3cnc4c(c3)C(=O)NCC4)ccn2)n1` [Compound I-406, 3-[2-[(2-methylpyrimidin-4-yl)amino]-4-pyridyl]-7,8-dihydro-6H-1,6-naphthyridin-5-one] reads above 100 nM.
The same measure for `CC(=O)Nc1cc(-c2cnc(C)c(C(=O)Nc3ccc(F)cc3F)c2)ccn1` [Compound I-431, 2′-acetamido-N-(2,4-difluorophenyl)-6-methyl-3,4′-bipyridine-5-carboxamide]: above 100 nM; for `CC(=O)Nc1cc(-c2cncc(NC(=O)c3ccccc3)c2)ccn1` [Compound I-13, N-(2′-acetamido-3,4′-bipyridin-5-yl)benzamide]: above 100 nM; for `COc1ncc(-c2ccnc(NC(C)=O)c2)cc1S(=O)(=O)Nc1ccc(F)cc1F` [Compound I-107, N-{5-[(2,4-difluorophenyl)sulfamoyl]-6-methoxy-3,4′-bipyridin-2′-yl]acetamide]: below 10 nM.
For `CC(=O)Nc1cc(-c2cnc(C)c(NS(=O)(=O)c3ccc(F)cc3F)c2)cc[n+]1[O-]` [Compound I-219, N-[4-(5-{[(2,4-difluorophenyl)sulfonyl]amino}-6-methylpyridin-3-yl)-1-oxidopyridin-2-yl]acetamide], the IC50 lay in the range of 50 to 100 nM.
The result for `CC(=O)Nc1cc(-c2cnc(N(C)C)c(NS(=O)(=O)c3ccc(F)cc3F)c2)ccn1` [Compound I-25, N-[5-{[(2,4-difluorophenyl)sulfonyl]amino}-6-(dimethylamino)-3,4′-bipyridin-2′-yl]acetamide] reads 10 to 50 nM.
The same measure for `Cc1nccc(Nc2cc(-c3cncc(C(=O)N(C)C45CC(C4)C5)c3)ccn2)n1` [Compound I-234, N-(bicyclo[1.1.1]pent-1-yl)-N-methyl-2′-[(2-methylpyrimidin-4-yl)amino]-3,4′-bipyridine-5-carboxamide]: 10 to 50 nM; for `CC(=O)Nc1cc(-c2cnc(N)c(S(=O)(=O)Nc3cccc(Cl)c3)c2)ccn1` [Compound I-97, N-[6-amino-5-[(3-chlorophenyl)sulamoyl]-3,4′-bipyridin-2′-yl]acetamide]: below 10 nM.
The result for `CC(=O)Nc1cc(-c2cc(OS(=O)(=O)N(C)C)c3ccnn3c2)ccn1` [Compound I-428, 6-(2-acetamidopyridin-4-yl)pyrazolo[1,5-a]pyridin-4-yl dimethylsulfamate] reads below 10 nM; that for `CC(=O)Nc1cc(-c2cnc(N(C)C)c(S(=O)(=O)NC(C)(C)C)c2C)ccn1` [Compound I-487, N-[5-(tert-butylsulfamoyl)-6-(dimethylamino)-4-methyl-3,4′-bipyridin-2′-yl]acetamide], above 100 nM.
On to `Cc1ccc(Nc2cc(-c3cnc(C)c(NS(=O)(=O)c4ccc(F)cc4F)c3)ccn2)nn1` [Compound I-307, 2,4-difluoro-N-{6-methyl-2′-[(6-methylpyridazin-3-yl)amino]-3,4′-bipyridin-5-yl}benzenesulfonamide], for which the IC50 fell in the range of 10 to 50 nM.
The result for `CC(=O)Nc1cc(-c2cnc(Cl)c(NS(=O)(=O)c3ccccc3)c2C)ccn1` [Compound I-312, N-{6-chloro-4-methyl-5-[(phenylsulfonyl)amino]-3,4′-bipyridin-2′-yl}acetamide] reads 10 to 50 nM.
